Measurements from patent US20260364184A1, “COMPOUND BASED ON OXOISOINDOLINYL-SUBSTITUTED TETRAHYDROPYRIMIDINE-DIONE AND USE THEREOF” (GLUETACS THERAPEUTICS (SHANGHAI) CO., LTD., priority 2023, published 2026).

Legend:
EGFR = target: T1, EGFR (Homo sapiens, UniProt P00533); assay: Western blot degradation of EGFR; assay type: cell-based; conditions: H1975 Cell; 24 hours
T1 construct: L858R/T790M in cis, heterozygous with wild type), Western blot
Protocol: Conventional Western blot assay was performed to evaluate the effects of the compounds of the present disclosure on the expression of target proteins in cells.
(1) Cell Seeding and Protein Harvesting: The selected cells were processed according to the cell seeding procedure and protein harvesting procedure in Table II-2.
(2) To the collected supernatant, 5×SDS sample loading buffer was added, followed by denaturation at 95 °C for 5 minutes. The denatured samples were then separated by SDS-PAGE electrophoresis on a polyacrylamide gel. Proteins were transferred to a nitrocellulose membrane (0.45 μm NC membrane), blocked with blocking buffer at room temperature for 1 hour, and subjected to antibody incubation and development procedures according to the antibody manufacturer's instructions (Cell Signaling Technology).
Half-Maximal Degradation Concentration value (the drug concentration required for degrading proteins by 50%, abbreviated as DC50) reads method: comparing the grayscale values of Western blot bands from drug-treated samples with those from blank DMSO-treated controls, and identifying the drug concentration range at which the grayscale value is half that of the DMSO-treated control bands.
DC50 values can be calculated using ImageJ software to measure grayscale values of Western blot bands from drug-treated samples. The concentration-response curve is fitted to estimate the drug concentration corresponding to half the grayscale value.
Target protein remaining (%) refers to the percentage of target protein remaining in cells after treatment with protein degrader compounds.
Calculation method for target protein remaining (%): Use ImageJ software to measure grayscale values of Western blot bands from drug (protein degrader)-treated samples. The grayscale value of drug-treated bands is divided by that of internal control protein bands, and the resulting quotient is normalized to obtain the relative percentage of remaining target protein after protein degrader treatment.
Target protein degradation rate (%)=1−target protein remaining (%).

[1] = target: T2, human Cereblon WT GST-tagged protein (CRBN) (Homo sapiens, UniProt Q96SW2); assay: CRBN binding by HTRF (Cereblon binding kit); conditions: for inhibition at 0.5 µM: read-out: Inhibition Rate at 0.5 μM (%); for inhibition at 2 µM: read-out: Inhibition Rate at 2 μM (%)
T2 construct: purchased CISBIO 64BDCRBNPEH
T2 sequence (Q96SW2 whole entry): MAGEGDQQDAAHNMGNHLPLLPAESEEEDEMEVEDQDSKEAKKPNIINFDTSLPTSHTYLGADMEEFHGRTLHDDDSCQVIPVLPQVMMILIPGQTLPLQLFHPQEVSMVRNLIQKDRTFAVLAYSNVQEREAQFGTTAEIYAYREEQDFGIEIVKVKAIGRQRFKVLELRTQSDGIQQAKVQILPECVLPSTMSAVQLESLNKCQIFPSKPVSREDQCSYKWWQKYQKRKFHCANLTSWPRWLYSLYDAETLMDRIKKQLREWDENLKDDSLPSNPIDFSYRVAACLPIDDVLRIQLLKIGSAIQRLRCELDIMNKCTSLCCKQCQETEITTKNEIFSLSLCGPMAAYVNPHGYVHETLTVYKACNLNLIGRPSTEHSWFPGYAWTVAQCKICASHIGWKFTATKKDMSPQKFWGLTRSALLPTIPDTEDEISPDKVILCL
In short: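 GST-tagged human Cereblon WT was incubated 3 h at room temperature with compound, thalidomide-Re tracer and Eu anti-GST antibody. Final compound concentrations were 10 to 0.00064 µM (7 points) or 2 and 0.5 µM. Inhibition rate was calculated from HTRF 665/620 nm ratios versus solvent and blank controls.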

T1 sequence (P00533 25-1210): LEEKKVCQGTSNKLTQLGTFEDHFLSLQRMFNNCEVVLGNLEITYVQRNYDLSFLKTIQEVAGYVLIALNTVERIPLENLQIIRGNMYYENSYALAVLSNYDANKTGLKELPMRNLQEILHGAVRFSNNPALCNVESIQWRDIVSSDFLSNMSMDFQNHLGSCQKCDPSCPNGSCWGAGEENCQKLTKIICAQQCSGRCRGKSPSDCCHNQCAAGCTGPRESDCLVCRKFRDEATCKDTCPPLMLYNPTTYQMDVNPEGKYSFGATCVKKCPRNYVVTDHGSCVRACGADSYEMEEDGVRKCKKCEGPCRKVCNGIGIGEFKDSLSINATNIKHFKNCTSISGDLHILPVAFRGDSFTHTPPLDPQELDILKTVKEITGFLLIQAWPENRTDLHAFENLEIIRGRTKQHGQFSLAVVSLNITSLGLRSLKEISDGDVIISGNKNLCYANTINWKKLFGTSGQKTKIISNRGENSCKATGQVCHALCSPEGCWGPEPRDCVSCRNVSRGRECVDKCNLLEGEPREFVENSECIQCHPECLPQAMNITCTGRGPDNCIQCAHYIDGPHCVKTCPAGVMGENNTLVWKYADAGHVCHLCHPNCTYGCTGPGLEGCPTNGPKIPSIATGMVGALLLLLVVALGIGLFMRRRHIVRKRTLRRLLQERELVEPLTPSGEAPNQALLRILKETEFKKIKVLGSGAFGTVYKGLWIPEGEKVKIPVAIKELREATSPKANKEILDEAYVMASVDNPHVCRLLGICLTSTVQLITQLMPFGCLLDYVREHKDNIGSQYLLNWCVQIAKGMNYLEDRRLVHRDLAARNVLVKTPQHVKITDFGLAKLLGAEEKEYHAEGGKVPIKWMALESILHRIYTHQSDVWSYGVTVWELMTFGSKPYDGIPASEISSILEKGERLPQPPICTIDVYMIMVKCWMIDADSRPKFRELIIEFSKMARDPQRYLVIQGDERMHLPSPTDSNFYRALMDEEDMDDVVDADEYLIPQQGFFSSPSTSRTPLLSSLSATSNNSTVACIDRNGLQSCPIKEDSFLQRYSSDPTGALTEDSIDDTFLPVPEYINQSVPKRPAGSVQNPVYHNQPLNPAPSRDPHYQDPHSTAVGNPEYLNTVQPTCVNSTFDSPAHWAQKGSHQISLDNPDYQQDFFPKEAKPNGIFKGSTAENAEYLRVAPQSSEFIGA
T1 sequence (Q96SW2 whole entry partner): as the sequence (Q96SW2 whole entry) above

## CN(Cc1ccc2c(c1)CN(N1CCC(=O)NC1=O)C2=O)C1CCN(c2ccc(Nc3ncc4nc(Nc5ccccc5)n(C5CCCC5)c4n3)cc2)CC1 [GT-05842, 1-(5-(((1-(4-((9-cyclopentyl-8-(phenylamino)-9H-purin-2-yl)amino)phenyl)piperidin-4-yl)(methyl)amino)methyl)-1-oxoisoindolin-2-yl)dihydropyrimidine-2,4 (1H,3H)-dione]
EGFR
  Degradation of substrate protein EGFR (substrate protein remaining %): A (0%≤substrate protein remaining %≤80%)
[1]
  inhibition at 0.5 µM: 10 to 20%
  inhibition at 2 µM: 53 to 60%

## COc1cc(N2CCN(Cc3ccc4c(c3)CN(N3CCC(=O)NC3=O)C4=O)CC2)c(C)cc1Nc1ncc(Br)c(Nc2ccc3nccnc3c2P(C)(C)=O)n1 [GT-05946, 1-(5-((4-(4-((5-bromo-4-((5-(dimethylphosphoryl)quinoxalin-6-yl)amino)pyrimidin-2-yl)amino)-5-methoxy-2-methylphenyl)piperazin-1-yl)methyl)-1-oxoisoindolin-2-yl)dihydropyrimidine-2,4 (1H,3H)-dione]
EGFR
  Degradation of substrate protein EGFR (substrate protein remaining %): A (0%≤substrate protein remaining %≤80%)

## O=C1CCN(N2C(=O)c3ccc(N4CCC(CN5CCN(C6CCN(c7ccc(Nc8ncc9nc(Nc%10ccccc%10)n(C%10CCCC%10)c9n8)cc7)CC6)CC5)CC4)cc3C2=O)C(=O)N1 [GT-05955, 5-(4-((4-(1-(4-((9-cyclopentyl-8-(phenylamino)-9H-purin-2-yl)amino)phenyl)piperidin-4-yl)piperazin-1-yl)methyl)piperidin-1-yl)-2-(2,4-dioxotetrahydropyrimidin-1(2H)-yl)isoindoline-1,3-dione]
EGFR
  Degradation of substrate protein EGFR (substrate protein remaining %): A (0%≤substrate protein remaining %≤80%)

## COc1cc(N2CCC(N3CCN(Cc4ccc5c(c4)CN(N4CCC(=O)NC4=O)C5=O)CC3)CC2)c(C)cc1Nc1ncc(Br)c(Nc2ccc3nccnc3c2P(C)(C)=O)n1 [GT-05996, 1-(5-((4-(1-(4-((5-bromo-4-((5-(dimethylphosphoryl)quinoxalin-6-yl)amino)pyrimidin-2-yl)amino)-5-methoxy-2-methylphenyl)piperidin-4-yl)piperazin-1-yl)methyl)-1-oxoisoindolin-2-yl)dihydropyrimidine-2,4 (1H,3H)-dione]
EGFR
  Degradation of substrate protein EGFR (substrate protein remaining %): A (0%≤substrate protein remaining %≤80%)

## COc1cc(N2CCC(N3CCN(CC4CCN(c5ccc6c(c5)C(=O)N(N5CCC(=O)NC5=O)C6=O)CC4)CC3)CC2)c(C)cc1Nc1ncc(Br)c(Nc2ccc3nccnc3c2P(C)(C)=O)n1 [GT-05997, 5-(4-((4-(1-(4-((5-bromo-4-((5-(dimethylphosphoryl)quinoxalin-6-yl)amino)pyrimidin-2-yl)amino)-5-methoxy-2-methylphenyl)piperidin-4-yl)piperazin-1-yl)methyl)piperidin-1-yl)-2-(2,4-dioxotetrahydropyrimidin-1(2H)-yl)isoindoline-1,3-dione]
EGFR
  Degradation of substrate protein EGFR (substrate protein remaining %): A (0%≤substrate protein remaining %≤80%)

## COc1cc(N2CCC(N3CCN(CC4CCN(c5cccc6c5C(=O)N(N5CCC(=O)NC5=O)C6=O)CC4)CC3)CC2)c(C)cc1Nc1ncc(Br)c(Nc2ccc3nccnc3c2P(C)(C)=O)n1 [GT-05998, 4-(4-((4-(1-(4-((5-bromo-4-((5-(dimethylphosphoryl)quinoxalin-6-yl)amino)pyrimidin-2-yl)amino)-5-methoxy-2-methylphenyl)piperidin-4-yl)piperazin-1-yl)methyl)piperidin-1-yl)-2-(2,4-dioxotetrahydropyrimidin-1(2H)-yl)isoindoline-1,3-dione]
EGFR
  Degradation of substrate protein EGFR (substrate protein remaining %): A (0%≤substrate protein remaining %≤80%)

## CC(C)n1nc(N2CCC(N(C)Cc3ccc4c(c3)CN(N3CCC(=O)NC3=O)C4=O)CC2)c2cnc(Nc3ccnc(-c4cnn(S(=O)(=O)C5CC5)c4)n3)cc21 [GT-06019, 1-(5-(((1-(6-((2-(1-(cyclopropylsulfonyl)-1H-pyrazol-4-yl)pyrimidin-4-yl)amino)-1-isopropyl-1H-pyrazolo[4,3-c]pyridin-3-yl)piperidin-4-yl)(methyl)amino)methyl)-1-oxoisoindolin-2-yl)dihydropyrimidine-2,4 (1H,3H)-dione]
EGFR
  Degradation of substrate protein EGFR (substrate protein remaining %): A (0%≤substrate protein remaining %≤80%)

## COC1CCN(c2nccc(Nc3cc4c(cn3)c(N3CCN(CC5CCN(c6cccc7c6C(=O)N(N6CCC(=O)NC6=O)C7=O)CC5)CC3)nn4C(C)C)n2)CC1 [GT-06035, 2-(2,4-dioxotetrahydropyrimidin-1(2H)-yl)-4-(4-((4-(1-isopropyl-6-((2-(4-methoxypiperidin-1-yl)pyrimidin-4-yl)amino)-1H-pyrazolo[4,3-c]pyridin-3-yl)piperazin-1-yl)methyl)piperidin-1-yl)isoindoline-1,3-dione]
EGFR
  Degradation of substrate protein EGFR (substrate protein remaining %): A (0%≤substrate protein remaining %≤80%)

## CC(C)n1nc(N2CCN(CC3CCN(c4ccc5c(c4)C(=O)N(N4CCC(=O)NC4=O)C5=O)CC3)CC2)c2cnc(Nc3ccnc(-c4cnn(S(=O)(=O)C5CC5)c4)n3)cc21 [GT-06073, 5-(4-((4-(6-((2-(1-(cyclopropylsulfonyl)-1H-pyrazol-4-yl)pyrimidin-4-yl)amino)-1-isopropyl-1H-pyrazolo[4,3-c]pyridin-3-yl)piperazin-1-yl)methyl)piperidin-1-yl)-2-(2,4-dioxotetrahydropyrimidin-1(2H)-yl)isoindoline-1,3-dione]
EGFR
  Degradation of substrate protein EGFR (substrate protein remaining %): A (0%≤substrate protein remaining %≤80%)

## CC(C)n1nc(N2CCC(N3CCN(Cc4ccc5c(c4)CN(N4CCC(=O)NC4=O)C5=O)CC3)CC2)c2cnc(Nc3ccnc(-c4cnn(S(=O)(=O)C5CC5)c4)n3)cc21 [GT-06077, 1-(5-((4-(1-(6-((2-(1-(cyclopropylsulfonyl)-1H-pyrazol-4-yl)pyrimidin-4-yl)amino)-1-isopropyl-1H-pyrazolo[4,3-c]pyridin-3-yl)piperidin-4-yl)piperazin-1-yl)methyl)-1-oxoisoindolin-2-yl)dihydropyrimidine-2,4 (1H,3H)-dione]
EGFR
  Degradation of substrate protein EGFR (substrate protein remaining %): A (0%≤substrate protein remaining %≤80%)

## COC1CCN(c2nccc(Nc3cc4c(cn3)c(N3CCC(N(C)CC5CCN(c6cccc7c6C(=O)N(N6CCC(=O)NC6=O)C7=O)CC5)CC3)nn4C(C)C)n2)CC1 [GT-06119, 2-(2,4-dioxotetrahydropyrimidin-1(2H)-yl)-4-(4-(((1-(1-isopropyl-6-((2-(4-methoxypiperidin-1-yl)pyrimidin-4-yl)amino)-1H-pyrazolo[4,3-c]pyridin-3-yl)piperidin-4-yl)(methyl)amino)methyl)piperidin-1-yl)isoindoline-1,3-dione]
EGFR
  Degradation of substrate protein EGFR (substrate protein remaining %): A (0%≤substrate protein remaining %≤80%)
[1]
  inhibition at 0.5 µM: 10 to 20%
  inhibition at 2 µM: 53 to 60%

## COc1cc(N2CCC(N3CCN(Cc4ccc5c(c4)C(=O)N(N4CCC(=O)NC4=O)C5=O)CC3)CC2)c(C)cc1Nc1ncc(Br)c(Nc2ccc3nccnc3c2P(C)(C)=O)n1 [GT-06154, 5-((4-(1-(4-((5-bromo-4-((5-(dimethylphosphoryl)quinoxalin-6-yl)amino)pyrimidin-2-yl)amino)-5-methoxy-2-methylphenyl)piperidin-4-yl)piperazin-1-yl)methyl)-2-(2,4-dioxotetrahydropyrimidin-1(2H)-yl)isoindoline-1,3-dione]
EGFR
  Degradation of substrate protein EGFR (substrate protein remaining %): A (0%≤substrate protein remaining %≤80%)

## CN(Cc1ccc2c(c1)C(=O)N(N1CCC(=O)NC1=O)C2=O)C1CCN(c2ccc(Nc3ncc4nc(Nc5ccccc5)n(C5CCCC5)c4n3)cc2)CC1 [GT-07113, 5-(((1-(4-((9-cyclopentyl-8-(phenylamino)-9H-purin-2-yl)amino)phenyl)piperidin-4-yl)(methyl)amino)methyl)-2-(2,4-dioxotetrahydropyrimidin-1(2H)-yl)isoindoline-1,3-dione]
EGFR
  Degradation of substrate protein EGFR (substrate protein remaining %): A (0%≤substrate protein remaining %≤80%)
